Test results published in patent US20230143596A1, “PESTICIDALLY ACTIVE DIAZINE-BISAMIDE COMPOUNDS” (SYNGENTA CROP PROTECTION AG, priority 2020, published 2023).

Key:
[1] = system: Diabrotica balteata; assay: Example B1: Diabrotica balteata (corn root worm), maize sprouts sprayed; assay type: in vivo; conditions: 96 h, application rate 200 ppm, L2 larvae, 4 days after infestation, vs untreated, read-out: control in at least one of the two categories (mortality or growth inhibition)
Description: Example B1: Diabrotica balteata (Corn Root Worm)
Maize sprouts placed onto an agar layer in 24-well microtiter plates were treated with aqueous test solutions prepared from 10′000 ppm DMSO stock solutions by spraying. After drying, the plates were infested with L2 larvae (6 to 10 per well). The samples were assessed for mortality and growth inhibition in comparison to untreated samples 4 days after infestation.
(§1) The following compounds gave an effect of at least 80% control in at least one of the two categories (mortality or growth inhibition) at an application rate of 200 ppm: […]

[2] = system: Euschistus heros; assay: Example B2: Euschistus heros (neotropical brown stink bug), soybean leaves sprayed; assay type: in vivo; conditions: 120 h, application rate 200 ppm, N2 nymphs, 5 days after infestation, vs untreated, read-out: control in at least one of the two categories (mortality or growth inhibition)
Description: Example B2: Euschistus heros (Neotropical Brown Stink Bug)
Soybean leaves on agar in 24-well microtiter plates were sprayed with aqueous test solutions prepared from 10′000 ppm DMSO stock solutions. After drying the leaves were infested with N2 nymphs. The samples were assessed for mortality and growth inhibition in comparison to untreated samples 5 days after infestation.
as §1

[3] = system: Chilo suppressalis; assay: Example B3: Chilo suppressalis (striped rice stemborer), artificial diet; assay type: in vivo; conditions: 144 h, application rate 200 ppm, L2 larvae, 6 days after infestation, vs untreated, read-out: control in at least one of the three categories (mortality, anti-feedant effect, or growth inhibition)
Description: Example B3: Chilo suppressalis (Striped Rice Stemborer)
24-well microtiter plates with artificial diet were treated with aqueous test solutions prepared from 10′000 ppm DMSO stock solutions by pipetting. After drying, the plates were infested with L2 larvae (6-8 per well). The samples were assessed for mortality, anti-feeding effect, and growth inhibition in comparison to untreated samples 6 days after infestation. Control of Chilo suppressalis by a test sample is given when at least one of the categories mortality, anti-feedant effect, and growth inhibition is higher than the untreated sample.

[4] = system: Plutella xylostella; assay: Example B4: Plutella xylostella (diamond back moth), artificial diet; assay type: in vivo; conditions: 192 h, application rate 200 ppm, eggs, 8 days after infestation, vs untreated, read-out: control in at least one of the two categories (mortality or growth inhibition)
Description: Example B4: Plutella xylostella (Diamond Back Moth)
24-well microtiter plates with artificial diet were treated with aqueous test solutions prepared from 10′000 ppm DMSO stock solutions by pipetting. After drying, Plutella eggs were pipetted through a plastic stencil onto a gel blotting paper and the plate was closed with it. The samples were assessed for mortality and growth inhibition in comparison to untreated samples 8 days after infestation. The following compounds gave an effect of at least 80% control in at least one of the two categories (mortality or growth inhibition) at an application rate of 200 ppm: […]

[5] = system: Spodoptera littoralis; assay: Example B6: Spodoptera littoralis (Egyptian cotton leaf worm), cotton leaf discs sprayed; assay type: in vivo; conditions: foliar, 72 h, application rate 200 ppm, L1 larvae, 3 days after infestation, vs untreated, read-out: control in at least one of the three categories (mortality, anti-feedant effect, or growth inhibition)
Description: Example B6: Spodoptera littoralis (Egyptian Cotton Leaf Worm)
Cotton leaf discs were placed onto agar in 24-well microtiter plates and sprayed with aqueous test solutions prepared from 10′000 ppm DMSO stock solutions. After drying the leaf discs were infested with five L1 larvae. The samples were assessed for mortality, anti-feeding effect, and growth inhibition in comparison to untreated samples 3 days after infestation. Control of Spodoptera littoralis by a test sample is given when at least one of the categories mortality, anti-feedant effect, and growth inhibition is higher than the untreated sample.

| Compound | melting point [°C] | other results |
| --- | --- | --- |
| CC(NC(=O)c1cc(C(F)(F)F)cc(C(F)(F)F)c1)c1nccnc1C(=O)NCC#N (stereo not shown) [P.11, 3-[1-[[3,5-bis(trifluoromethyl)benzoyl]amino]ethyl]-N-(cyanomethyl)pyrazine-2-carboxamide] | 193 |  |
| CCNC(=O)c1nccnc1C(C)NC(=O)c1cc(OCC(F)F)cc(C(F)(F)F)c1 (stereo not shown) [P.9, 3-[1-[[3-(2,2-difluoroethoxy)-5-(trifluoromethyl)benzoyl]amino]ethyl]-N-ethyl-pyrazine-2-carboxamide] | 134 |  |
| CC(NC(=O)c1cc(C(F)(F)F)cc(C(F)(F)F)c1)c1nccnc1C(=O)NC(C)(C)C#N (stereo not shown) [P.15, 3-[1-[[3,5-bis(trifluoromethyl)benzoyl]amino]ethyl]-N-(1-cyano-1-methyl-ethyl)pyrazine-2-carboxamide] | 195 |  |
| CC(NC(=O)c1cc(C(F)(F)F)cc(C(F)(F)F)c1)c1nccnc1C(=O)NC1COC1 (stereo not shown) [P.20, 3-[1-[[3,5-bis(trifluoromethyl)benzoyl]amino]ethyl]-N-(oxetan-3-yl)pyrazine-2-carboxamide] | 68 |  |
| COCC(C)NC(=O)c1nccnc1C(C)NC(=O)c1cc(C(F)(F)F)cc(C(F)(F)F)c1 (stereo not shown) [P.18, 3-[1-[[3,5-bis(trifluoromethyl)benzoyl]amino]ethyl]-N-(2-methoxy-1-methyl-ethyl)pyrazine-2-carboxamide] | 127 |  |
| COCC(C)(C)NC(=O)c1nccnc1C(C)NC(=O)c1cc(C(F)(F)F)cc(C(F)(F)F)c1 (stereo not shown) [P.17, 3-[1-[[3,5-bis(trifluoromethyl)benzoyl]amino]ethyl]-N-(2-methoxy-1,1-dimethyl-ethyl)pyrazine-2-carboxamide] | 132 |  |
| CC(NC(=O)c1cc(C(F)(F)F)cc(C(F)(F)F)c1)c1nccnc1C(=O)N1CCOCC1 (stereo not shown) [P.14, N-[1-[3-(morpholine-4-carbonyl)pyrazin-2-yl]ethyl]-3,5-bis(trifluoromethyl)benzamide] | 81 |  |
| CC(NC(=O)c1cc(C(F)(F)F)cc(C(F)(F)F)c1)c1nccnc1C(=O)Nc1ccc(C#N)cn1 (stereo not shown) [P.10, 3-[1-[[3,5-bis(trifluoromethyl)benzoyl]amino]ethyl]-N-(5-cyano-2-pyridyl)pyrazine-2-carboxamide] | 215 |  |
| CCNC(=O)c1nccnc1C(C)NC(=O)c1cc(C(F)(F)F)cc(C(F)(F)F)c1 (stereo not shown) [Compound P1, 3-[1-[[3,5-bis(trifluoromethyl)benzoyl]amino]ethyl]-N-ethyl-pyrazine-2-carboxamide] |  | percent control (mortality or growth inhibition) at 200 ppm [1]: ≥ 80%; percent control (mortality or growth inhibition) at 200 ppm [2]: ≥ 80%; percent control (mortality, anti-feedant effect or growth inhibition) at 200 ppm [3]: ≥ 80%; percent control (mortality or growth inhibition) at 200 ppm [4]: ≥ 80%; percent control (mortality, anti-feedant effect or growth inhibition) at 200 ppm [5]: ≥ 80% |
| CNC(=O)c1nccnc1C(C)NC(=O)c1cc(C(F)(F)F)cc(C(F)(F)F)c1 (stereo not shown) [P.19, 3-[1-[[3,5-bis(trifluoromethyl)benzoyl]amino]ethyl]-N-methyl-pyrazine-2-carboxamide] | 164 |  |
| CC(NC(=O)c1cc(C(F)(F)F)cc(C(F)(F)F)c1)c1nccnc1C(=O)NCCC#N (stereo not shown) [P.21, 3-[1-[[3,5-bis(trifluoromethyl)benzoyl]amino]ethyl]-N-(2-cyanoethyl) pyrazine-2-carboxamide] | 156 |  |
| CCCCNC(=O)c1nccnc1C(C)NC(=O)c1cc(C(F)(F)F)cc(C(F)(F)F)c1 (stereo not shown) [Compound P3, 3-[1-[[3,5-bis(trifluoromethyl)benzoyl]amino]ethyl]-N-butyl-pyrazine-2-carboxamide] |  | percent control (mortality, anti-feedant effect or growth inhibition) at 200 ppm [3]: ≥ 80% |
| CC(NC(=O)c1cc(C(F)(F)F)cc(C(F)(F)F)c1)c1nccnc1C(=O)NC1(C#N)CC1 (stereo not shown) [P.16, 3-[1-[[3,5-bis(trifluoromethyl)benzoyl]amino]ethyl]-N-(1-cyanocyclopropyl)pyrazine-2-carboxamide] | 123 |  |
| CCNC(=O)c1nccnc1C(C)NC(=O)c1cc(OCC(F)(F)F)cc(C(F)(F)F)c1 (stereo not shown) [P.8, N-ethyl-3-[1-[[3-(2,2,2-trifluoroethoxy)-5-(trifluoromethyl)benzoyl]amino]ethyl]pyrazine-2-carboxamide] | 136 |  |
| COCCNC(=O)c1nccnc1C(C)NC(=O)c1cc(C(F)(F)F)cc(C(F)(F)F)c1 (stereo not shown) [P.4, 3-[1-[[3,5-bis(trifluoromethyl)benzoyl]amino]ethyl]-N-(2-methoxyethyl)pyrazine-2-carboxamide] | 128 |  |
| CCN(C)C(=O)c1nccnc1C(C)NC(=O)c1cc(C(F)(F)F)cc(C(F)(F)F)c1 (stereo not shown) [P.13, 3-[1-[[3,5-bis(trifluoromethyl)benzoyl]amino]ethyl]-N-ethyl-N-methyl-pyrazine-2-carboxamide] | 75 |  |
| CCCNC(=O)c1nccnc1C(C)NC(=O)c1cc(C(F)(F)F)cc(C(F)(F)F)c1 (stereo not shown) [P.2, 3-[1-[[3,5-bis(trifluoromethyl)benzoyl]amino]ethyl]-N-propyl-pyrazine-2-carboxamide] | 127 |  |
| CC(NC(=O)c1cc(C(F)(F)F)cc(C(F)(F)F)c1)c1nccnc1C(=O)Nc1ccc(C#N)cc1 (stereo not shown) [P.12, 3-[1-[[3,5-bis(trifluoromethyl)benzoyl]amino]ethyl]-N-(4-cyanophenyl)pyrazine-2-carboxamide] | 241 |  |
| C=CCNC(=O)c1nccnc1C(C)NC(=O)c1cc(C(F)(F)F)cc(C(F)(F)F)c1 (stereo not shown) [Compound P6, N-allyl-3-[1-[[3,5-bis(trifluoromethyl)benzoyl]amino]ethyl]pyrazine-2-carboxamide] |  | percent control (mortality, anti-feedant effect or growth inhibition) at 200 ppm [3]: ≥ 80%; percent control (mortality or growth inhibition) at 200 ppm [4]: ≥ 80% |
| CC(NC(=O)c1cc(C(F)(F)F)cc(C(F)(F)F)c1)c1nccnc1C(=O)Nc1ncccn1 (stereo not shown) [P.7, 3-[1-[[3,5-bis(trifluoromethyl)benzoyl]amino]ethyl]-N-pyrimidin-2-yl-pyrazine-2-carboxamide] | 201 |  |
| CC(NC(=O)c1cc(C(F)(F)F)cc(C(F)(F)F)c1)c1nccnc1C(=O)NC1CC1 (stereo not shown) [Compound P5, 3-[1-[[3,5-bis(trifluoromethyl)benzoyl]amino]ethyl]-N-cyclopropyl-pyrazine-2-carboxamide] |  | percent control (mortality, anti-feedant effect or growth inhibition) at 200 ppm [3]: ≥ 80%; percent control (mortality or growth inhibition) at 200 ppm [4]: ≥ 80%; percent control (mortality, anti-feedant effect or growth inhibition) at 200 ppm [5]: ≥ 80% |
